Laboratory results as given in patent publication US10577395B2 (priority 2014, dated 2020).
≈ marks a conversion by molar mass, not a printed value.

What was measured:
[1] = test system: vancomycin-resistant Enterococcus faecalis (VanA VRE, BM4166); test: microbe, parasite or virus in culture; type: cell-based; conditions: for MIC: Enterococcus faecalis, VRE, read-out: MIC, VanA E. faecalis
Description: (§1) Assays were carried out following the methods of Clinical and Laboratory Standards Institute; Methods for Dilution Antimicrobial Susceptibility Tests for Bacteria That Grow Aerobically; Approved Standard, […].; CLSI document M07-A8; Clinical and Laboratory Standards Institute: Wayne, Pa., 2009.
(§2) This diluted bacterial stock solution was then inoculated into a well of a V-shaped 96-well glass coated microtiter plate, supplemented with serial diluted aliquots of the antibiotic solution DMSO (4 μL), to achieve a total assay volume of 0.1 mL. The plate was then incubated at 37° C. for 18 hours, after which minimal inhibitory concentrations (MICs) were determined by monitoring the cell growth (observed as a pellet) in the wells. The lowest concentration of antibiotic (in μg/mL) capable of eliminating the cell growth in the wells is reported as the MIC.

[2] = test system: vancomycin-resistant Enterococcus faecalis (VanB VRE, strain ATCC 51299); test: microbe, parasite or virus in culture; type: cell-based; conditions: for MIC: Enterococcus faecalis, read-out: MIC, VanB E. faecalis
Description: as §1, §2

[3] = test system: Enterococcus faecium (VanA VRE, ATCC BAA-2317); test: Antimicrobial assay, MIC, VanA E. faecium; type: cell-based; conditions: for MIC: Enterococcus faecium, read-out: MIC, VanA E. faecium
Description: as §1, §2

[4] = test system: methicillin and oxacillin-resistant Staphylococcus aureus subsp. aureus (MRSA strain ATCC 43300); test: Antimicrobial assay, MIC, MRSA; type: cell-based; conditions: for MIC: Staphylococcus aureus, read-out: MIC, MRSA S. aureus
Description: as §1, §2

[5] = test system: vancomycin-sensitive Staphylococcus aureus (VSSA strain ATCC 25923); test: Antimicrobial assay, MIC, vancomycin-sensitive S. aureus; type: cell-based; conditions: Staphylococcus aureus, ATCC25923; ATCC 25923; read-out: MIC, sensitive S. aureus
Description: as §1, §2

[6] = test system: VanA VRE; test: Antimicrobial assay, MIC for VanA VRE; type: cell-based, E. faecalis and E. faecium
Description: as §1, §2

Row | Molecule | MIC [1] | MIC [2] | MIC [3] | MIC [4] | MIC [5] | other results
1 | CN[C@H](CC(C)C)C(=O)N[C@H]1C(=O)N[C@@H](CC(N)=O)C(=O)N[C@H]2C(=S)NC3C(=O)N[C@H](C(=O)N[C@H](CO)c4cc(O)cc(O)c4-c4cc3ccc4O)[C@H](O)c3ccc(c(Cl)c3)Oc3cc2cc(c3OC2OC(CO)C(O)[C@H](O)[C@@H]2O[C@H]2CC(C)(N)[C@H](O)[C@H](C)O2)Oc2ccc(cc2Cl)[C@H]1O (stereo partly shown) [Compound 24] | > 32 µg/mL | > 32 µg/mL | > 32 µg/mL | > 32 µg/mL | > 32 µg/mL | –
2 | CN[C@H](CC(C)C)C(=O)N[C@H]1C(=O)N[C@@H](CC(N)=O)C(=O)N[C@H]2C(=N)NC3C(=O)N[C@H](C(=O)N[C@H](CO)c4cc(O)cc(O)c4-c4cc3ccc4O)[C@H](O)c3ccc(c(Cl)c3)Oc3cc2cc(c3OC2OC(CO)C(O)[C@H](O)[C@@H]2O[C@H]2CC(C)(N)[C@H](O)[C@H](C)O2)Oc2ccc(cc2Cl)[C@H]1O (stereo partly shown) [Compound 25] | 2 µg/mL (≈ 1.39 µM) | – | 2 µg/mL (≈ 1.39 µM) | – | – | –
3 | CN[C@H](CC(C)C)C(=O)N[C@H]1C(=O)N[C@@H](CC(N)=O)C(=O)N[C@H]2C(=O)NC3C(=O)N[C@H](C(=O)N[C@H](CO)c4cc(O)cc(O)c4-c4cc3ccc4O)[C@H](O)c3ccc(c(Cl)c3)Oc3cc2cc(c3OC2OC(CO)C(O)[C@H](O)[C@@H]2O[C@H]2CC(C)(NCc3ccc(-c4ccc(Cl)cc4)cc3)[C@H](O)[C@H](C)O2)Oc2ccc(cc2Cl)[C@H]1O (stereo partly shown) [Compound 26] | 2 µg/mL (≈ 1.22 µM) | 0.13 µg/mL (≈ 0.0795 µM) | 4 µg/mL (≈ 2.45 µM) | 0.03 µg/mL (≈ 0.0183 µM) | 0.03 µg/mL (≈ 0.0183 µM) | –
4 | CN[C@H](CC(C)C)C(=O)N[C@H]1C(=O)N[C@@H](CC(N)=O)C(=O)N[C@H]2C(=S)NC3C(=O)N[C@H](C(=O)N[C@H](CO)c4cc(O)cc(O)c4-c4cc3ccc4O)[C@H](O)c3ccc(c(Cl)c3)Oc3cc2cc(c3OC2OC(CO)C(O)[C@H](O)[C@@H]2O[C@H]2CC(C)(NCc3ccc(-c4ccc(Cl)cc4)cc3)[C@H](O)[C@H](C)O2)Oc2ccc(cc2Cl)[C@H]1O (stereo partly shown) [Compound 27] | 8 µg/mL (≈ 4.84 µM) | 4 µg/mL (≈ 2.42 µM) | 4 µg/mL (≈ 2.42 µM) | 8 µg/mL (≈ 4.84 µM) | 4 µg/mL (≈ 2.42 µM) | –
5 | CN[C@H](CC(C)C)C(=O)N[C@H]1C(=O)N[C@@H](CC(N)=O)C(=O)N[C@H]2C(=N)NC3C(=O)N[C@H](C(=O)N[C@H](CO)c4cc(O)cc(O)c4-c4cc3ccc4O)[C@H](O)c3ccc(c(Cl)c3)Oc3cc2cc(c3OC2OC(CO)C(O)[C@H](O)[C@@H]2O[C@H]2CC(C)(NCc3ccc(-c4ccc(Cl)cc4)cc3)[C@H](O)[C@H](C)O2)Oc2ccc(cc2Cl)[C@H]1O (stereo partly shown) [Compound 28] | 0.02 µg/mL (≈ 0.0122 µM) | 0.06 µg/mL (≈ 0.0367 µM) | 0.02 µg/mL (≈ 0.0122 µM) | 0.13 µg/mL (≈ 0.0795 µM) | 0.13 µg/mL (≈ 0.0795 µM) | –
6 | CBP-[Ψ[CH2NH]Tpg^4]vancomycin [Compound 17] | – | – | – | – | – | MIC, VanA E. faecalis ([1]; BM 4166): 0.13 µg/mL; MIC, Van A E. faecalis, serum concentration 10% ([1]; BM 4166, 10%): 0.13 µg/mL; MIC, Van A E. faecalis, serum concentration 25% ([1]; BM 4166, 25%): 0.26 µg/mL; MIC, Van A E. faecalis, serum concentration 100% ([1]; BM 4166, 100%): 0.5 µg/mL; MIC, VanB E. faecalis ([2]; ATCC 51299): 0.5 µg/mL; MIC, Van B E. faecalis, serum concentration 10% ([2]; ATCC 51299, 10%): 0.5 µg/mL; MIC, Van B E. faecalis, serum concentration 25% ([2]; ATCC 51299, 25%): 1 µg/mL; MIC, Van B E. faecalis, serum concentration 100% ([2]; ATCC 51299, 100%): 2 µg/mL; MIC, VanA E. faecium ([3]; ATCC BAA-2317): 0.06 µg/mL; MIC, Van A E. faecium, serum concentration 10% ([3]; ATCC BAA-2317, 10%): 0.06 µg/mL; MIC, Van A E. faecium, serum concentration 25% ([3]; ATCC BAA-2317, 25%): 0.13 µg/mL; MIC, Van A E. faecium, serum concentration 100% ([3]; ATCC BAA-2317, 100%): 0.5 µg/mL; MIC, MRSA S. aureus ([4]; ATCC 43300): 0.25 µg/mL; MIC, MRSA S. aureus, serum concentration 10% ([4]; ATCC 43300, 10%): 0.25 µg/mL; MIC, MRSA S. aureus, serum concentration 25% ([4]; ATCC 43300, 25%): 0.5 µg/mL; MIC, MRSA S. aureus, serum concentration 100% ([4]; ATCC 43300, 100%): 1 µg/mL; improvement in activity against VanA VRE on introduction of the (4-chlorobiphenyl)methyl group ([6]; relative to the analogue without CBP group): 100 fold; MIC against VanA VRE ([6]; stated for VanA VRE): 0.06 to 0.13 µg/mL
